# Results reported in paper PMC10413649 (Science Advances, 2023).
# Tests used:
# [1] = test system: laser-induced DNA damage sites in U2OS cells; assay: Laser microirradiation, GFP-PAXX and mCherry-XLF coexpressed in U2OS cells with WT or mutated Ku70; format: cell-based, human; details: U2OS cells expressing Ku70 mutants; Fig. 5, B to E
# [2] = test system: laser-induced DNA damage sites in U2OS cells; assay: Laser microirradiation, GFP-PAXX recruitment in mAID-Ku70 U2OS cells with WT or mutated Ku70; format: cell-based, human; details: mAID-Ku70 U2OS cells + IAA, Fig. 3B
# Source text: We also purified three mutants of Ku70 complexed to WT Ku80 (fig. S7). […] To assess the impact of Ku70 mutations in cells, we engineered a system in U2OS cells to allow replacement of endogenous Ku70 by mutant forms of the protein (Fig. 3A). As Ku is essential for the viability of human cells, we first knocked down endogenous Ku70 expression via the constitutive expression of a short hairpin–mediated RNA (shRNA) combined with cell rescue through expression of Ku70 tagged with a mini auxin-inducible degron (mAID). This allows for rapid degradation of endogenous Ku70 upon addition of auxin [indole-3-acetic acid (IAA)] ([28]). This system permits a strong and fast Ku70 depletion, with concomitant Ku80 depletion due to reciprocal stabilization of both Ku subunits (Fig. 3A).
# The generation of U2OS cells expressing a mAID-Ku70 in place of the endogenous protein was achieved as follows. First, U2OS cells were cotransduced with two lentiviral constructs allowing both the expression of an shRNA against Ku70 and the expression of a Ku70 protein resistant to the shRNA and fused to a mAID tag at its N terminus. The latter vector also expresses a puromycin resistance gene, enabling the selection of a transduced cell population. […]
# [3] = test system: mutants of Ku70 complexed to WT Ku80; assay: ITC, mutant Ku70 (complexed to WT Ku80) with P-KBM; format: binding; details: three Ku70 mutants complexed to WT Ku80 (fig. S7)
# Source text: DNA-PKcs and full-length His-tagged Ku70/80 were expressed and purified according to ([6]). For crystallography and ITC, the full-length Ku70/80 and a truncated version deleted of its C terminus regions called KuΔC [Ku70 (1 to 544)/Ku80 (1 to 555)], were expressed in Sf21 insect cells using a MultiBac expression system. The Ku80 subunit contains a 10xHis-tag, followed by a Tobacco Etch Virus (TEV) protease site on its N terminus. The Ku70/Ku80 heterodimer was purified according to the protocol described in ([10]). The three KuFL variants with single mutation H162A, R165E, or R517E on Ku70 subunits were expressed in insect cells and purified with the same protocol.
# Interaction between Ku-DNA complex and the different peptides (WT and variants) was measured by isothermal calorimetry using a VP-ITC machine. For ITC measurements, the full-length Ku heterodimer was used with the DNA G and F as previously used in ([14]). Before measurements, the Ku heterodimer was extensively dialyzed against buffer [20 mM tris (pH 8), 150 mM NaCl, and 5 mM β-mercaptoethanol]. The cell reaction (1.8 ml) was loaded with the preformed Ku-DNA complex at a 1:1.2 molar ratio respectively. Ku was loaded at 5 μM concentration. The syringe (300 μl) was loaded with the different peptides at different concentrations ranging between 50 and 100 μM. The Ku-DNA complex was titrated by automatic injections of 10 μl at 25°C. […]
# XLF = assay: Direct PAXX-XLF interaction test; format: binding; details: tested outside the DNA-PK LR complex; method not described
# [4] = test system: damaged chromatin fraction of U2OS cells expressing WT or mutated Ku70; assay: Western blot of chromatin fractions after calicheamicin; format: cell-based, human; details: 3 nM calicheamicin for 1 hour, Fig. 3E
molecule,measurement,setting,value
GFP-PAXX: GFP-tagged PAXX construct expressed in U2OS cells,recruitment of coexpressed GFP-PAXX / mCherry-XLF to DNA damage sites with Ku70 mutations,[1],compromised to various extents
WT Ku70: recombinant wild-type Ku70 used to replace degraded endogenous Ku70,"PAXX recruitment to microirradiated areas, restored by recombinant Ku70",[2]; complemented with WT Ku70,restored to levels similar to those in native U2OS cells
CC[C@H](C)[C@H](NC(=O)[C@H](CC(C)C)NC(=O)[C@H](CO)NC(=O)[C@H](CCC(=O)O)NC(=O)CNC(=O)[C@@H]1CCCN1C(=O)[C@H](CS)NC(=O)[C@H](CCCNC(=N)N)NC(=O)[C@H](CCCNC(=N)N)NC(=O)[C@H](CCCNC(=N)N)NC(C)=O)C(=O)N[C@@H](CC(N)=O)C(=O)N1CCC[C@H]1C(=O)NCC(=O)N[C@@H](Cc1ccccc1)C(=O)N[C@@H](CCCCN)C(=O)N[C@@H](CO)C(=O)N[C@@H](CCCCN)C(=O)N[C@@H](CCCCN)C(=O)N1CCC[C@H]1C(=O)N[C@@H](C)C(=O)NCC(=O)NCC(=O)N[C@H](C(=O)N[C@@H](CC(=O)O)C(=O)N[C@@H](Cc1ccccc1)C(=O)N[C@@H](CC(=O)O)C(=O)N[C@@H](CCC(=O)O)C(=O)N[C@H](C(=O)O)[C@@H](C)O)C(C)C [KBM],"residual interaction of Ku70 mutants with P-KBM (ITC, words)",[3],no residual interaction
"PAXX: full-length PAXX, paralog of XRCC4 and XLF, 6xHis-tag, expressed in E. coli; WT protein also expressed in cells",PAXX recruitment to damage sites under Ku depletion,[2]; no complementation,abolished under Ku depletion conditions
same,direct interaction of PAXX and XLF,XLF,did not observe a direct interaction when tested
same,"recruitment to damaged chromatin fraction, Ku70 Patch 1 or Patch 2 mutated",[4],not detected in damaged chromatin fraction
